Laboratory results: patent US4740233A, “Substituted 1,2,4-triazolo[1,5-a]-pyrimidine-2-sulfonamides and compositions and methods of controlling undesired vegetation and suppressing the nitrification of ammonium nitrogen in soil” (The Dow Chemical Company, priority 1986, dated 1988)

What was measured:
sugar beet [1] = test: Postemergent control of plant species; type: in vivo, Beta saccharifera; conditions: Beta vulgaris, post-emergence, 336 h, read-out: percent postemergent control
How it was run: (§1)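 Spray emulsion: acetone stock at twice final concentration plus equal volume water with 0.1% wetting agent, applied to separated greenhouse beds at 2-4 leaf stage. Assessed at ~two weeks; score reflects growth reduction compared with untreated plants.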

[2] = tested on: nitrification of ammonium nitrogen; test: Suppression of nitrification of ammonium nitrogen in soil; conditions: 27° C.
How it was run: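 Value is % NH4-N remaining after a two-week, 27° C incubation of treated soil held at 1/3 bar tension moisture. Nitrate was measured with an ion-selective electrode after extraction with ammonium sulfate solution and 10 min shaking.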

cocklebur = test: Postemergent control of plant species; type: in vivo, Xanthium spp.; conditions: Xanthium strumarium, post-emergence, 336 h, read-out: percent postemergent control
How it was run: as §1

velvetleaf [3] = test: Postemergent control of plant species; type: in vivo, Abutilon theophrasti; conditions: Abutilon theophrasti, post-emergence, 336 h, read-out: percent postemergent control
How it was run: as §1

barnyardgrass [4] = test: Postemergent control of plant species; type: in vivo, Echinochloa crusgalli; conditions: Echinochloa crus-galli, post-emergence, 336 h, read-out: percent postemergent control
How it was run: as §1

jimsonweed = test: Postemergent control of plant species; type: in vivo, Datura stramonium; conditions: Datura stramonium, post-emergence, 336 h, read-out: percent postemergent control
How it was run: as §1

crabgrass = test: Postemergent control of plant species; type: in vivo, Digitaria spp.; conditions: Digitaria sanguinalis, post-emergence, 336 h, read-out: percent postemergent control
How it was run: as §1

cotton [5] = test: Postemergent control of plant species; type: in vivo, Gossypium spp.; conditions: Gossypium hirsutum, post-emergence, 336 h, read-out: percent postemergent control
How it was run: as §1

rape [6] = test: Postemergent control of plant species; type: in vivo, Brassica napus; conditions: Brassica napus, post-emergence, 336 h, read-out: percent postemergent control
How it was run: as §1

wild oats [7] = test: Postemergent control of plant species; type: in vivo, Avena fatua; conditions: Avena fatua, post-emergence, 336 h, read-out: percent postemergent control
How it was run: as §1

annual morning glory [8] = test: Postemergent control of plant species; type: in vivo, Ipomoea spp.; conditions: Ipomoea, post-emergence, 336 h, read-out: percent postemergent control
How it was run: as §1

yellow foxtail [9] = test: Postemergent control of plant species; type: in vivo, Setaria lutescens; conditions: Setaria, post-emergence, 336 h, read-out: percent postemergent control
How it was run: as §1

pigweed = test: Postemergent control of plant species; type: in vivo, Amaranthus spp.; conditions: Amaranthus retroflexus, post-emergence, 336 h, read-out: percent postemergent control
How it was run: as §1

corn [10] = test: Postemergent control of plant species; type: in vivo, Zea mays; conditions: Zea mays, post-emergence, 336 h, read-out: percent postemergent control
How it was run: as §1

rice [11] = test: Postemergent control of plant species; type: in vivo, Oryza sativa; conditions: Oryza sativa, post-emergence, 336 h, read-out: percent postemergent control
How it was run: as §1

yellow nutsedge [12] = test: Postemergent control of plant species; type: in vivo, Cyperus esculentus; conditions: Cyperus, post-emergence, 336 h, read-out: percent postemergent control
How it was run: as §1

wheat [13] = test: Postemergent control of plant species; type: in vivo, Triticum aestivum; conditions: Triticum aestivum, post-emergence, 336 h, read-out: percent postemergent control
How it was run: as §1

soybean [14] = test: Postemergent control of plant species; type: in vivo, Glycine max.; conditions: Glycine max, post-emergence, 336 h, read-out: percent postemergent control
How it was run: as §1

sorghum [15] = test: Postemergent control of plant species; type: in vivo, Sorghum vulgare; conditions: Sorghum, post-emergence, 336 h, read-out: percent postemergent control
How it was run: as §1

johnson grass [16] = test: Postemergent control of plant species; type: in vivo, Sorghum halepense; conditions: Sorghum halepense, post-emergence, 336 h, read-out: percent postemergent control
How it was run: as §1

[17] = tested on: annual sugar beet variety (SLC03); test: Plant growth regulator activity, postemergence; type: in vivo; conditions: for observed effect (postemergence): 400 ppm; for minimal effective concentration: Beta vulgaris, post-emergence, 672 h, 4 weeks after spraying, read-out: Bolting Inhibition (postemergence), concentration with observed effect
From the text: (§2) Using a regular biennial variety, even a bolting-susceptible variety would require a cold treatment of around 10-16 weeks plus a hormone treatement in conjunction with specific light intensities. Thus, for a screening organism, we selected one which would consistently produce bolting on a regular schedule. The screen is run with an annual sugar beet variety (SLC03) provided by Dr. Richard J. Hecker, Fort Collins, Colo. This variety is an inbred which bolts in the 6- to 8-leaf stage without any need for vernalization. This allows the screen to be run entirely in the greenhouse with all 110 chemical compounds tested on one tray. The sugarbeets are grown in 3×3 inch square pots in a greenhouse sandy loam potting mix. The sugarbeets are sprayed with test compounds when they are 2 to 3 weeks old (2 true leaves). The compounds are dissolved in acetone and diluted with water containing Tween 20 as a wetting agent. The concentration of acetone in the final spray is 20% and the concentration of Tween 20 is 0.05 percent. The plants are examined for the appearance of a bolt 4 weeks after spraying.

[18] = tested on: annual sugar beet variety (SLC03); test: Plant growth regulator activity, preemergence; type: in vivo; conditions: Beta vulgaris, pre-emergence; 6-7 weeks; read-out: Bolting Inhibition (preemergence), concentration with observed effect
From the text: as §2
Preemergence tests are conducted by spraying formulated chemical on seeds placed on potting soil. The sprayed seeds are then covered with 1/4 inch of potting soil and the pots are watered. Bolting is evaluated 6-7 weeks after the initiation of the test. At this time untreated plants have a vigorous bolting stem with visible flowers.

corn [19] = test: Preemergent control of plant species; type: in vivo, Zea mays; conditions: Zea mays, pre-emergence, 336 h; 0.25 lb/acre; read-out: percent preemergent control
How it was run: (§3)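 Test compositions were applied evenly to the surface of freshly seeded soil beds and kept under greenhouse conditions for two weeks. Percent control reflects growth reduction compared with water-treated beds of the same species.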

sugar beet [20] = test: Preemergent control of plant species; type: in vivo, Beta saccharifera; conditions: Beta vulgaris, pre-emergence, 336 h; 0.25 lb/acre; read-out: percent preemergent control
How it was run: as §3

yellow nutsedge [21] = test: Preemergent control of plant species; type: in vivo, Cyperus esculentus; conditions: Cyperus, pre-emergence, 336 h; 0.25 lb/acre; read-out: percent preemergent control
How it was run: as §3

yellow foxtail [22] = test: Preemergent control of plant species; type: in vivo, Setaria lutescens; conditions: Setaria, pre-emergence, 336 h; 0.25 lb/acre; read-out: percent preemergent control
How it was run: as §3

sorghum [23] = test: Preemergent control of plant species; type: in vivo, Sorghum vulgare; conditions: Sorghum, pre-emergence, 336 h; 0.25 lb/acre; read-out: percent preemergent control
How it was run: as §3

rape [24] = test: Preemergent control of plant species; type: in vivo, Brassica napus; conditions: Brassica napus, pre-emergence, 336 h; 0.25 lb/acre; read-out: percent preemergent control
How it was run: as §3

velvetleaf [25] = test: Preemergent control of plant species; type: in vivo, Abutilon theophrasti; conditions: Abutilon theophrasti, pre-emergence, 336 h; 0.25 lb/acre; read-out: percent preemergent control
How it was run: as §3

barnyardgrass [26] = test: Preemergent control of plant species; type: in vivo, Echinochloa crusgalli; conditions: Echinochloa crus-galli, pre-emergence, 336 h; 0.25 lb/acre; read-out: percent preemergent control
How it was run: as §3

wheat [27] = test: Preemergent control of plant species; type: in vivo, Triticum aestivum; conditions: Triticum aestivum, pre-emergence, 336 h; 0.25 lb/acre; read-out: percent preemergent control
How it was run: as §3

johnson grass [28] = test: Preemergent control of plant species; type: in vivo, Sorghum halepense; conditions: Sorghum halepense, pre-emergence, 336 h; 0.25 lb/acre; read-out: percent preemergent control
How it was run: as §3

cotton [29] = test: Preemergent control of plant species; type: in vivo, Gossypium spp.; conditions: Gossypium hirsutum, pre-emergence, 336 h; 0.25 lb/acre; read-out: percent preemergent control
How it was run: as §3

annual morning glory [30] = test: Preemergent control of plant species; type: in vivo, Ipomoea spp.; conditions: Ipomoea, pre-emergence, 336 h; 0.25 lb/acre; read-out: percent preemergent control
How it was run: as §3

soybean [31] = test: Preemergent control of plant species; type: in vivo, Glycine max.; conditions: Glycine max, pre-emergence, 336 h; 0.25 lb/acre; read-out: percent preemergent control
How it was run: as §3

rice [32] = test: Preemergent control of plant species; type: in vivo, Oryza sativa; conditions: Oryza sativa, pre-emergence, 336 h; 0.25 lb/acre; read-out: percent preemergent control
How it was run: as §3

wild oats [33] = test: Preemergent control of plant species; type: in vivo; conditions: Avena fatua, pre-emergence, 336 h; 0.25 lb/acre; read-out: percent preemergent control
How it was run: as §3

Compound | plant injury at 500 ppm (sugar beet [1]) [%] | % NH4-N Remaining After 2 Weeks Incubation ([2]; 0.06 ppm) [%] | % NH4-N Remaining After 2 Weeks Incubation ([2]; 0.25 ppm) [%] | % NH4-N Remaining After 2 Weeks Incubation ([2]; 1 ppm) [%] | % NH4-N Remaining After 2 Weeks Incubation ([2]; 4 ppm) [%] | pest or weed control at 500 ppm (velvetleaf [3]) [%] | pest or weed control at 500 ppm (barnyardgrass [4]) [%] | pest or weed control at 500 ppm (jimsonweed) [%] | pest or weed control at 500 ppm (crabgrass) [%] | plant injury at 500 ppm (cotton [5]) [%] | plant injury at 500 ppm (rape [6]) [%] | pest or weed control at 500 ppm (wild oats [7]) [%] | pest or weed control at 500 ppm (annual morning glory [8]) [%] | pest or weed control at 500 ppm (yellow foxtail [9]) [%] | pest or weed control at 500 ppm (pigweed) [%] | plant injury at 500 ppm (corn [10]) [%] | plant injury at 500 ppm (rice [11]) [%] | pest or weed control at 500 ppm (yellow nutsedge [12]) [%] | plant injury at 500 ppm (wheat [13]) [%] | minimal effective concentration [17] [µg/mL] | also measured
Cc1cccc(Cl)c1NS(=O)(=O)c1nc2ncc(Cl)cn2n1 [Compound 119] | 50 | 23 | 33 | 69 | 88 | 70 | 0 | 90 | 0 | 0 | 100 | 0 | 30 | 0 | 0 | 30 | 0 | 40 | 0 | 400 | pest or weed control at 500 ppm (cocklebur): 70%; plant injury at 500 ppm (soybean [14]): 0%; plant injury at 500 ppm (sorghum [15]): 0%; pest or weed control at 500 ppm (johnson grass [16]): 80%; observed effect (postemergence) [17]: stunting
Cc1ccccc1NS(=O)(=O)c1nc2ncc(Cl)cn2n1 [Compound 129] |  |  |  |  |  |  |  |  |  |  |  |  |  |  |  |  |  |  |  | 400 | minimal effective concentration [18]: 400 µg/mL
CC(C)c1ccn2nc(S(=O)(=O)Nc3c(Cl)cccc3Cl)nc2n1 [Compound 204] |  |  |  |  |  |  |  |  |  |  |  |  |  |  |  |  |  |  |  | 400 | plant injury at 280.212 g/ha (corn [19]): 40%; plant injury at 280.212 g/ha (sugar beet [20]): 90%; % NH4-N Remaining After 2 Weeks Incubation ([2]; 0.6 ppm): 0%; % NH4-N Remaining After 2 Weeks Incubation ([2]; 1.25 ppm): 0%; % NH4-N Remaining After 2 Weeks Incubation ([2]; 2.5 ppm): 34%; % NH4-N Remaining After 2 Weeks Incubation ([2]; 5 ppm): 56%; % NH4-N Remaining After 2 Weeks Incubation ([2]; 10 ppm): 66%; pest or weed control at 280.212 g/ha (yellow nutsedge [21]): 0%; pest or weed control at 280.212 g/ha (yellow foxtail [22]): 0%; plant injury at 280.212 g/ha (sorghum [23]): 60%; plant injury at 280.212 g/ha (rape [24]): 40%; pest or weed control at 280.212 g/ha (velvetleaf [25]): 0%; pest or weed control at 280.212 g/ha (barnyardgrass [26]): 0%; plant injury at 280.212 g/ha (wheat [27]): 0%; pest or weed control at 280.212 g/ha (johnson grass [28]): 0%; plant injury at 280.212 g/ha (cotton [29]): 80%; pest or weed control at 280.212 g/ha (annual morning glory [30]): 0%; plant injury at 280.212 g/ha (soybean [31]): 0%; plant injury at 280.212 g/ha (rice [32]): 0%; pest or weed control at 280.212 g/ha (wild oats [33]): 0%
COC(=O)c1cccc(C)c1N(Cc1ccccc1)S(=O)(=O)c1nc2nc(C)cc(C)n2n1 [Compound 267] | 80 | 0 | 0 | 0 | 11 | 95 | 35 | 80 | 90 | 0 | 80 | 0 | 90 | 70 | 60 | 0 | 40 | 40 | 0 | 400 | plant injury at 500 ppm (soybean [14]): 45%; plant injury at 500 ppm (sorghum [15]): 65%; pest or weed control at 500 ppm (johnson grass [16]): 75%; observed effect (postemergence) [17]: stunting
